Our source for the IC50 values is US11292788B2, “IL-17 and IFN-gamma inhibition for the treatment of autoimmune diseases and chronic inflammation” (Immunic AG, priority 2017, dated 2022).

Like-named read-outs stand apart in the source and are kept apart here.

Type in all cases: cell-based
One experiment deals with IL-17F. The experiment is described as follows: Cytokine assay: IL-17F production by human PBMC stimulated with PHA. The conditions noted are these: IC50 class, read-out: IL-17F Inhib. As for the experimental part: (§1) Cytokine Assay: Analysis of Proliferation of and Cytokine Production by Human PBMC Stimulated with PHA
(§2) Peripheral blood mononuclear cells (PBMC) from healthy human donors were purified using Accuspin™ System-Histopaque-1077 (Sigma) according to the protocol recommended by the manufacturer. Purified PBMC were then washed twice with phosphate-buffered saline (PBS) and resuspended in RPMI1640 culture medium supplemented with 10% dialyzed heat inactivated fetal calf serum, 1.5 mM L-glutamine, 100 U penicillin/ml, and […] (all from PAN Biotech, Aidenbach, Germany). For stimulation, PBMC were seeded at 1×10^5 cells/well, activated with 2 μg/ml phytohaemagglutinin (PHA, Sigma) and incubated with the test compounds for 48 hours. IL-17A, IL-17F and INF-γ were then determined in the culture supernatant using a Luminex BioPlex system, following the manufacturer's instructions (BioRad, Munich, Germany). For screening, compounds were used at 10, 1, 0.1 and 0.01 μM. To determine the IC50, compounds were titrated semilogarithmically.
(§3) Cytokines were determined in the aforementioned culture supernatant using the following methods: IL-17A was measured using the human homodimer IL-17A ELISA Ready Set Go Kit from eBioscience (Frankfurt, Germany); IL-17F using the human IL-17F ELI-Pair from Hölzel DiagnosticaGmBH (Köln, Germany); and IFN-γ using the OptEIA human IFN-g ELISA from BD Bioscience (Heidelberg, Germany), all following the manufacturer's instructions.

Another experiment relates to INF-γ. The experiment is described as follows: Cytokine assay: INF-γ production by human PBMC stimulated with PHA. To be noted: IC50 class, read-out: IFN-gamma Inhib. As for the experimental part:
as §1, §2, §3

A further experiment concerns IL-17A. Put plainly: Cytokine assay: IL-17A production by human PBMC stimulated with PHA. The conditions noted are these: IC50 class, read-out: IL-17A Inhib. The protocol: as §1, §2, §3

On to `Cc1c(-c2onc(-c3ccccc3Cl)c2C(=O)OC2COC2)cnn1C[C@H](C)O` [Example 47, oxetan-3-yl 3-(2-chlorophenyl)-5-{1-[(2S)-2-hydroxypropyl]-5-methyl-1H-pyrazol-4-yl}-1,2-oxazole-4-carboxylate], for which the IC50 in the experiment with IL-17F (Homo sapiens, PBMC) was 50 to 500 nM; in the experiment on INF-γ (Homo sapiens, PBMC), 50 to 500 nM; with IL-17A (Homo sapiens, PBMC), 50 to 500 nM.

`C[C@]1(O)C[C@H](n2ncc(-c3onc(-c4ccccc4Cl)c3C(=O)OC3CC3)c2C(F)(F)F)C1` [Example 48, cyclopropyl 3-(2-chlorophenyl)-5-(1-(3-hydroxy-3-methylcyclobutyl)-5-(trifluoromethyl)-1H-pyrazol-4-yl)isoxazole-4-carboxylate]: the IC50 with IL-17F, in the experiment on INF-γ and in the experiment on IL-17A was 500 to 5000 nM each time.

Turning to `C[C@]1(O)C[C@H](n2ncc(-c3onc(-c4c(F)cccc4Cl)c3C(=O)OC3CC3)c2C(F)(F)F)C1` [Example 50, cyclopropyl 3-(2-chloro-6-fluorophenyl)-5-(1-(3-hydroxy-3-methylcyclobutyl)-5-(trifluoromethyl)-1H-pyrazol-4-yl)isoxazole-4-carboxylate], the IC50 was less than 50 nM in the experiment with IL-17F (Homo sapiens, PBMC); less than 50 nM with INF-γ (Homo sapiens, PBMC); 50 to 500 nM in the experiment with IL-17A (Homo sapiens, PBMC).

As to `Cc1c(-c2onc(-c3ccccc3Cl)c2C(=O)OC2COC2)cnn1[C@H]1C[C@@](C)(O)C1` [Example 52, oxetan-3-yl 3-(2-chlorophenyl)-5-(1-(3-hydroxy-3-methylcyclobutyl)-5-methyl-1H-pyrazol-4-yl)isoxazole-4-carboxylate], the IC50 is 50 to 500 nM in the experiment on IL-17F (Homo sapiens, PBMC); 50 to 500 nM with INF-γ (Homo sapiens, PBMC); 50 to 500 nM in the experiment on IL-17A (Homo sapiens, PBMC).

`Cc1c(-c2onc(-c3ccccc3Cl)c2C(=O)OC2CC2)cnn1[C@H]1C[C@@](C)(O)C1` [Example 54, cyclopropyl 3-(2-chlorophenyl)-5-{5-methyl-1-[3-hydroxy-3-methylcyclobutyl]-1H-pyrazol-4-yl}-1,2-oxazole-4-carboxylate]: the IC50 with IL-17F lay in the range of 500 to 5000 nM; with INF-γ, 50 to 500 nM; with IL-17A, 500 to 5000 nM.

For the compound `CC(C)(O)Cn1ncc(-c2onc(-c3c(F)cccc3Cl)c2C(=O)OC2COC2)c1C(F)(F)F` [Example 57, oxetan-3-yl 3-(2-chloro-6-fluorophenyl)-5-[1-(2-hydroxy-2-methylpropyl)-5-(trifluoromethyl)-1H-pyrazol-4-yl]-1,2-oxazole-4-carboxylate], the IC50 with IL-17F (Homo sapiens, PBMC) was 50 to 500 nM; in the experiment on INF-γ (Homo sapiens, PBMC) it was 50 to 500 nM; in the experiment with IL-17A (Homo sapiens, PBMC) it was 500 to 5000 nM.

Take `CC(C)(O)Cn1ncc(-c2onc(-c3c(F)cccc3Cl)c2CO)c1C(F)(F)F` [Example 63, 1-(4-(3-(2-chloro-6-fluorophenyl)-4-(hydroxymethyl)isoxazol-5-yl)-5-(trifluoromethyl)-1H-pyrazol-1-yl)-2-methylpropan-2-ol]: the IC50 with IL-17F (Homo sapiens, PBMC) was no less than 5000 nM; with INF-γ (Homo sapiens, PBMC), no less than 5000 nM; with IL-17A (Homo sapiens, PBMC), no less than 5000 nM.

Take `C[C@]1(O)C[C@@H](n2ncc(-c3onc(-c4ccccc4Cl)c3CO)c2C(F)(F)F)C1` [Example 64, 3-(4-(3-(2-chlorophenyl)-4-(hydroxymethyl)-1,2-oxazol-5-yl)-5-(trifluoromethyl)-1H-pyrazol-1-yl)-1-methylcyclobutan-1-ol]: the IC50 was no less than 5000 nM with IL-17F (Homo sapiens, PBMC); 500 to 5000 nM in the experiment with INF-γ (Homo sapiens, PBMC); no less than 5000 nM with IL-17A (Homo sapiens, PBMC).

Take `COCc1c(-c2c(F)cccc2Cl)noc1-c1cnn(C[C@H](C)O)c1C(F)(F)F` [Example 68, (2S)-1-(4-(3-(2-chloro-6-fluorophenyl)-4-(methoxymethyl)isoxazol-5-yl)-5-(trifluoromethyl)-1H-pyrazol-1-yl)propan-2-ol]: the IC50 was in the range of 500 to 5000 nM with IL-17F (Homo sapiens, PBMC); 50 to 500 nM in the experiment on INF-γ (Homo sapiens, PBMC); 500 to 5000 nM in the experiment with IL-17A (Homo sapiens, PBMC).

On to `COCc1c(-c2ccccc2Cl)noc1-c1cnn([C@H]2C[C@@](C)(O)C2)c1C` [Example 72, 3-{4-[3-(2-chlorophenyl)-4-(methoxymethyl)-1,2-oxazol-5-yl]-5-methyl-1H-pyrazol-1-yl}-1-methylcyclobutan-1-ol], for which the IC50 with IL-17F (Homo sapiens, PBMC) is 50 to 500 nM; in the experiment with INF-γ (Homo sapiens, PBMC), less than 50 nM; in the experiment with IL-17A (Homo sapiens, PBMC) it was 50 to 500 nM.

As to `COCc1c(-c2ccccc2Cl)noc1-c1cnn([C@H]2C[C@](C)(O)C2)c1C` [Example 73, 3-{4-[3-(2-chlorophenyl)-4-(methoxymethyl)-1,2-oxazol-5-yl]-5-methyl-1H-pyrazol-1-yl}-1-methylcyclobutan-1-ol], the IC50 in the experiment on IL-17F (Homo sapiens, PBMC) was 500 to 5000 nM; with INF-γ (Homo sapiens, PBMC) it was 500 to 5000 nM; with IL-17A (Homo sapiens, PBMC) it was 500 to 5000 nM.

Consider `COCc1c(-c2ccccc2Cl)noc1-c1cnn([C@H]2C[C@@](C)(O)C2)c1C(F)(F)F` [Example 74, 3-(4-(3-(2-chlorophenyl)-4-(methoxymethyl)isoxazol-5-yl)-5-(trifluoromethyl)-1H-pyrazol-1-yl)-1-methylcyclobutan-1-ol], for which the IC50 with IL-17F (Homo sapiens, PBMC) was 50 to 500 nM; in the experiment on INF-γ (Homo sapiens, PBMC) it was 50 to 500 nM; in the experiment with IL-17A (Homo sapiens, PBMC) it was 50 to 500 nM.

In the case of `COCCOCc1c(-c2ccccc2Cl)noc1-c1cnn(C[C@H](C)O)c1C(F)(F)F` [Example 75, (2S)-1-{4-[3-(2-chlorophenyl)-4-[(2-methoxyethoxy)methyl]-1,2-oxazol-5-yl]-5-(trifluoromethyl)-1H-pyrazol-1-yl}propan-2-ol], the IC50 in the experiment with IL-17F (Homo sapiens, PBMC) lay within 500 to 5000 nM; in the experiment on INF-γ (Homo sapiens, PBMC) it was 500 to 5000 nM; with IL-17A (Homo sapiens, PBMC), 500 to 5000 nM.

As to `Cc1c(-c2onc(-c3ccccc3Cl)c2COC2CC2)cnn1CCC(C)(C)O` [Example 79, 4-{4-[3-(2-chlorophenyl)-4-(cyclopropoxymethyl)-1,2-oxazol-5-yl]-5-methyl-1H-pyrazol-1-yl}-2-methylbutan-2-ol], the IC50 was 50 to 500 nM in the experiment with IL-17F (Homo sapiens, PBMC); less than 50 nM in the experiment on INF-γ (Homo sapiens, PBMC); 50 to 500 nM in the experiment on IL-17A (Homo sapiens, PBMC).

Turning to `Cc1c(-c2onc(-c3ccccc3Cl)c2COC2CC2)cnn1[C@H]1C[C@](C)(O)C1` [Example 81, 3-{4-[3-(2-chlorophenyl)-4-(cyclopropoxymethyl)-1,2-oxazol-5-yl]-5-methyl-1H-pyrazol-1-yl}-1-methylcyclobutan-1-ol], the IC50 in the experiment on IL-17F (Homo sapiens, PBMC) is 500 to 5000 nM; with INF-γ (Homo sapiens, PBMC), 50 to 500 nM; in the experiment on IL-17A (Homo sapiens, PBMC) it was 500 to 5000 nM.

In the case of `Cc1c(-c2onc(-c3c(F)cccc3Cl)c2COC2CC2)cnn1[C@H]1C[C@](C)(O)C1` [Example 84, 3-{4-[3-(2-chloro-6-fluorophenyl)-4-(cyclopropoxymethyl)-1,2-oxazol-5-yl]-5-methyl-1H-pyrazol-1-yl}-1-methylcyclobutan-1-ol], the IC50 in the experiment with IL-17F (Homo sapiens, PBMC) was in the range of 50 to 500 nM; with INF-γ (Homo sapiens, PBMC), 50 to 500 nM; in the experiment on IL-17A (Homo sapiens, PBMC) it was 50 to 500 nM.

Turning to `C[C@H](O)Cn1ncc(-c2onc(-c3ccccc3Cl)c2COC2COC2)c1C(F)(F)F` [Example 88, (S)-1-(4-(3-(2-chlorophenyl)-4-((oxetan-3-yloxy)methyl)isoxazol-5-yl)-5-(trifluoromethyl)-1H-pyrazol-1-yl)propan-2-ol], the IC50 with IL-17F (Homo sapiens, PBMC) was 500 to 5000 nM; in the experiment on INF-γ (Homo sapiens, PBMC), 500 to 5000 nM; with IL-17A (Homo sapiens, PBMC), no less than 5000 nM.

Consider `COc1cccc(-c2noc(-c3cnn(CCC(C)(C)O)c3C(F)(F)F)c2COC2CC2)c1Cl` [Example 91, 4-{4-[3-(2-chloro-3-methoxyphenyl)-4-(cyclopropoxymethyl)-1,2-oxazol-5-yl]-5-(trifluoromethyl)-1H-pyrazol-1-yl}-2-methylbutan-2-ol], for which the IC50 in the experiment with IL-17F (Homo sapiens, PBMC) is less than 50 nM; in the experiment on INF-γ (Homo sapiens, PBMC), less than 50 nM; in the experiment with IL-17A (Homo sapiens, PBMC), less than 50 nM.

`COC(=O)c1c(-c2cccnc2O)noc1-c1cnn(CC(C)(C)O)c1C(F)(F)F` [Example 93, methyl 5-[1-(2-hydroxy-2-methylpropyl)-5-(trifluoromethyl)-1H-pyrazol-4-yl]-3-(2-hydroxypyridin-3-yl)-1,2-oxazole-4-carboxylate]: the IC50 was in the range of 50 to 500 nM with IL-17F (Homo sapiens, PBMC); 50 to 500 nM with INF-γ (Homo sapiens, PBMC); 500 to 5000 nM in the experiment with IL-17A (Homo sapiens, PBMC).

`C[C@@H](O)Cn1ncc(-c2cc(-c3c(F)cccc3Cl)no2)c1C(F)(F)F` [Example 94, (2R)-1-(4-(3-(2-chloro-6-fluorophenyl)isoxazol-5-yl)-5-(trifluoromethyl)-1H-pyrazol-1-yl)propan-2-ol]: the IC50 in the experiment with IL-17F (Homo sapiens, PBMC) was no less than 5000 nM; in the experiment with INF-γ (Homo sapiens, PBMC), 500 to 5000 nM; with IL-17A (Homo sapiens, PBMC), no less than 5000 nM.

With `C[C@H](O)Cn1ncc(-c2onc(-c3ccccc3Cl)c2C2CCCO2)c1C(F)(F)F` (stereo partly drawn) [Example 96, (2S)-1-{4-[3-(2-chlorophenyl)-4-(oxolan-2-yl)-1,2-oxazol-5-yl]-5-(trifluoromethyl)-1H-pyrazol-1-yl}propan-2-ol], the IC50 with IL-17F (Homo sapiens, PBMC) fell in the range of 500 to 5000 nM; in the experiment on INF-γ (Homo sapiens, PBMC) it was 50 to 500 nM; in the experiment with IL-17A (Homo sapiens, PBMC) it was 500 to 5000 nM.

In the case of `C[C@]1(O)C[C@@H](n2ncc(-c3onc(-c4c(F)cccc4Cl)c3-c3ccncn3)c2C(F)(F)F)C1` [Example 105, 3-{4-[3-(2-chloro-6-fluorophenyl)-4-(pyrimidin-4-yl)-1,2-oxazol-5-yl]-5-(trifluoromethyl)-1H-pyrazol-1-yl}-1-methylcyclobutan-1-ol], the IC50 in the experiment on IL-17F is 50 to 500 nM; with INF-γ it was 50 to 500 nM; in the experiment on IL-17A, 500 to 5000 nM.
